# In patent US20140309184A1, “METHODS AND COMPOSITIONS FOR THE TREATMENT OF OVARIAN CANCER” (UNIVERSITY OF SOUTH ALABAMA, priority 2011, published 2014):
# pIC50: −log10 of the molar value.
# How the values were obtained:
# [1] = test system: SHH; assay: Quantitative real time PCR in carboplatin treated SKOV3 cells; assay type: cell-based; conditions: SKOV3, various concentrations of carboplatin
# Description: SKOV3 cells were treated with various concentrations of carboplatin and the levels of SHH, Smo, PTCH, and Gli1 determined using quantitative real time PCR. Carboplatin treatment unregulated SHH (FIG. 14).
# [2] = test system: SKOV3 cells; assay: MTS cell survival with BMS-833923 plus chemotherapy, Calcusyn combination index; assay type: cell-based
# Description: An MTS in vitro assay was performed using chemotherapy agents commonly used for ovarian cancer (carboplatin, paclitaxel, gemcitabine, topotecan and liposomal doxorubicin) with or without BMS-833923. Ovarian cancer cells ES2, SKOV3, OV90 and TOV112D were seeded at a density of 4,000 cells/well in 96-well tissue culture plates. The following day, fresh medium was added to each well and treated with IC50 concentrations of BMS-833923 as well as the aforementioned chemotherapies and kept at 37° C. in a humidified 5% CO2 atmosphere. Every 24 hr, 20 μl/well of MTS reagent were added in 96 well plates and stored in 37° C. incubator for about 3 hr followed by absorbance reading at 490 nm. The assay was carried out up to 72 hrs at various concentrations described herein.
# With a cross-diagonal multidrug treatment design, the combination index (CI) was calculated to determine mathematical synergy using the median effect method per Calcusyn software (Biosoft, Ferguson, Mo.). This software utilizes multiple drug dose-effect calculations using the Median Effect methods (Chou T. C., et al., Trends Pharmacol. Sci. 4, 450-454). […] The fraction of cells affected (Fa) by carboplatin and BMS-833923 was used to calculate dose response curves and the CI. Statistically Calcusyn quantifies phenomena such as synergism vs. additive effects as well as inhibition (antagonism). Calcusyn software defines synergy as a CI value<1 with the extent of synergism stratified as follows: Possible Synergy: 1.0-0.91; Moderate Synergy: […]; and Clear Synergy: 0.7-0.3. A CI=1 may be indicative of additivity; a CI>1 may be indicative of antagonism.
# Combination indices were calculated to determine mathematical synergy using the median effect method per Calcusyn software (Biosoft, Ferguson, Mo.) as described above. Monolayers of SKOV3 cells were contacted with various chemotherapeutic agents, and BMS-833923 in combination with various chemotherapeutic agents. The chemotherapeutic agents included Carboplatin, Taxol™, Gemzar™, Topotecan (Hycamtim™), and Doxil™. The percentage survival of the contacted SKOV3 cells was measured over 72 hours. Synergistic effects were calculated statistically using Calcusyn™ Software. A combination index (CI) less than 1 indicates synergy; a CI equal to 1 indicates additivity; a CI greater than 1 indicated antagonism.
# Combination indices were calculated to determine mathematical synergy using the median effect method per Calcusyn software (Biosoft, Ferguson, Mo.) as described above. […] Per prior definitions this represents Clear Synergy defined as CI<0.7. This level of synergy would result in a 2- to 14-fold reduction of carboplatin dose required with the addition of BMS-833923. (Table 5 and FIG. 9).
# The dose reduction index (DRI) was determined for experimental values using the Calcusyn software package, with the relative CI and the fraction affected to determine the relative reduction in a dose to achieve similar effects with a single agent (Table 6).
# [3] = test system: A2780 xenografts; assay: Xenograft tumor growth, carboplatin-sensitive model; assay type: in vivo; conditions: SCID mice; BMS-833923 100 mg/kg i.p. daily, Carboplatin 40 mg/kg i.p. twice a week, two weeks
# Description: (§1) Female SCID mice 6-8 weeks old were inoculated i.p. with 5×10^6 A2780 or A2780/CP70 cells suspended in 200 μL PBS (PH 7.4). Seven days later when the tumor reached a size of greater than 150 mm^3, the mice were randomly divided into 4 groups (8 mice per group) as follows: (1) PBS-treated control; (2) BMS-833923 alone (100 mg/kg, i.p. daily, two weeks); (3) Carboplatin alone (40 mg/kg, i.p. twice a week, two weeks); (4) Combination of BMS-833923 and Carboplatin treatment. Mice were weighed and tumor diameters were measured with calipers every 2-3 days for 20 days. The tumor volumes (mm^3) were calculated as (W^2×L)/2, where W and L are the minor and major diameters (in millimeters), respectively.
# (§2) Xenograft experiments were performed as described above. Carboplatin was dosed days 7, 11, 14, 18; BMS-833923 was dosed days 8 through 20. The experiment was terminated due to excessive tumor size in vehicle and BMS-833923 treatment groups.
# [4] = MTD for combination therapy; assay type: in vivo; conditions: BMS-833923 + carboplatin given together; previously demonstrated
# From the text: Treatment with BMS-833923 appeared to have little effect on the growth of A2780 xenografts in vivo.
# [5] = test system: A2780/CP70 cells; assay: Carboplatin IC50 with and without BMS-833923 in platinum resistant cell line; assay type: cell-based
# Description: (§3) Considering the synergy described above and that the Hedgehog pathway is associated with cancer stem cell properties. In the effect of BMS-833923 plus carboplatin in two isogenic ovarian cancer cell lines specifically designed to evaluate platinum resistance mechanisms: A2780 (platinum sensitive) & A2780/CP70 (platinum resistant). Each cell line was evaluated to determine the IC50 dose of carboplatin to ensure a discernable difference in platinum treatment could be determined (FIG. 11A). The A2780/CP70 cell line required a 4-fold increase in carboplatin to reach IC50 (A2780/CP70=400 μM; A2780=100 μM). […] (FIG. 11B and FIG. 11C).
# [6] = Percent body weight change in xenograft experiments; assay type: in vivo, SCID mice; conditions: xenograft mice; BMS-833923 100 mg/kg i.p. daily, Carboplatin 40 mg/kg i.p. twice a week
# Description: as §1
# Xenograft experiments were performed as described above. […] However, under such dosage (100 mg/kg, i.p. daily, for two weeks), treatment with BMS-833923 appeared to have little effect on the growth of A2780 or A2780/CP70 xenografts in vivo (FIG. 13). […] However, this dosage has little effect on the growth of CP2780 xenografts in vivo.
# [7] = test system: A2780 cells; assay: Carboplatin IC50 in platinum sensitive cell line; assay type: cell-based; conditions: read-out: IC50 dose of carboplatin
# Description: as §3
# [8] = test system: CP2780 xenografts; assay: Xenograft tumor growth, carboplatin-resistant model; assay type: in vivo; conditions: SCID mice; BMS-833923 100 mg/kg i.p. daily, Carboplatin 40 mg/kg i.p. twice a week, two weeks
# Description: as §1, §2
# The CP2780 was derived from the A2780 Ovarian tumor xenograft model by selection for resistance to cisplatin. The CP2780 growth appeared to be more robust than observed for parental A2780 model (FIG. 12B). Average tumor volume doubling time for CP2780 was estimated at 2 days. Doubling time for parental A2780 tumor model was estimated at 3 days. […]
smiles,measurement,setting,value
"N.N.O=C([O-])C1(C(=O)[O-])CCC1.[Pt+2] [Carboplatin, carboplatin]",SHH mRNA level,[1],unregulated
same,Carboplatin DRI,[2]; fraction affected 16.6%,14.869
same,Carboplatin single agent dose to achieve the fraction affected,[2]; fraction affected 16.6%,892.1349 µM
same,Carboplatin DRI,[2]; fraction affected 29.1%,8.06e+006
same,Carboplatin single agent dose to achieve the fraction affected,[2]; fraction affected 29.1%,5.642e+08 µM
same,Carboplatin DRI,[2]; fraction affected 38.4%,2.07e+010
same,Carboplatin single agent dose to achieve the fraction affected,[2]; fraction affected 38.4%,1.243e+12 µM
same,Carboplatin DRI,[2]; fraction affected 41.8%,2.45e+011
same,Carboplatin single agent dose to achieve the fraction affected,[2]; fraction affected 41.8%,1.716e+13 µM
same,effect on growth of A2780 xenografts in vivo,[3],inhibited growth
same,MTD for combination therapy,[4],40 mg/kg
same,"increase in carboplatin to reach IC50, A2780/CP70 versus A2780",[5],4 fold
same,pIC50,"[5]; A2780/CP70 (platinum resistant), read-out: IC50 dose of carboplatin",3.40
same,Percent body weight change,[6],Combination<Carboplatin alone<BMS-833923 alone
same,pIC50,[7],4.00
same,effect on growth of CP2780 (A2780/CP70) xenografts in vivo,[8],little effect
